ChEMBL document CHEMBL5113421, “Development of novel conformationally restricted selective Clk1/4 inhibitors through creating an intramolecular hydrogen bond involving an imide linker” (Eur J Med Chem, 2022)

Tests used:
[1] = target: T1, Dual specificity protein kinase CLK1 (Homo sapiens, UniProt P49759); assay: Inhibition of human recombinant GST-tagged Clk1 (129 to 484 residues) expressed in Escherichia coli expression system at 100 nM using GRSRSRSRSRSRSRS peptide as substrate incubated for 15 mins in presence of ATP by phosphoimager analysis relative to control
Target sequence in this assay (P49759 whole entry, looked up, the tested form may be a part): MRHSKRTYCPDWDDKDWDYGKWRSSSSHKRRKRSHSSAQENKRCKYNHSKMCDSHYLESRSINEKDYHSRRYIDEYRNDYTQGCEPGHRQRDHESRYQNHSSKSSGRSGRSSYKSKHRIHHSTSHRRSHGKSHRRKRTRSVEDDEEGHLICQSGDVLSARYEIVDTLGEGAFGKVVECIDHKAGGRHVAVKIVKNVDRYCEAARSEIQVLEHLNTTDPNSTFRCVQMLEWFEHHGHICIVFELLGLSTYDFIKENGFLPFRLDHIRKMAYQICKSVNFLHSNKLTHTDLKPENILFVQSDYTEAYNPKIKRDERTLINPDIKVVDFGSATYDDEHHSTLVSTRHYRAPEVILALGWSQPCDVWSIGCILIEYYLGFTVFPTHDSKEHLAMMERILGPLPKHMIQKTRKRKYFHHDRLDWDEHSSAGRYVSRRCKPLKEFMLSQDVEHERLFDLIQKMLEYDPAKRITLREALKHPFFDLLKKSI

T-24 = assay: Antiproliferative activity against human T24 cells assessed as cell growth inhibition measured after 3 days by MTT assay; type: functional; details: T-24, 72 h, time 3 day
[2] = target: T1, Dual specificity protein kinase CLK1; assay: Inhibition of human recombinant GST-tagged Clk1 (129 to 484 residues) expressed in Escherichia coli expression system using GRSRSRSRSRSRSRS peptide as substrate incubated for 15 mins in presence of ATP by phosphoimager analysis
Target sequence in this assay (P49759 whole entry, the tested form may be a part): as the sequence (P49759 whole entry, looked up, the tested form may be a part) above

[3] = target: T2, Dual specificity protein kinase CLK2 (Homo sapiens, UniProt P49760); assay: Inhibition of human recombinant GST-tagged Clk2 expressed in Baculovirus expression system using GRSRSRSRSRSRSRS peptide as substrate incubated for 15 mins in presence of ATP by phosphoimager analysis
Target sequence in this assay (P49760 whole entry): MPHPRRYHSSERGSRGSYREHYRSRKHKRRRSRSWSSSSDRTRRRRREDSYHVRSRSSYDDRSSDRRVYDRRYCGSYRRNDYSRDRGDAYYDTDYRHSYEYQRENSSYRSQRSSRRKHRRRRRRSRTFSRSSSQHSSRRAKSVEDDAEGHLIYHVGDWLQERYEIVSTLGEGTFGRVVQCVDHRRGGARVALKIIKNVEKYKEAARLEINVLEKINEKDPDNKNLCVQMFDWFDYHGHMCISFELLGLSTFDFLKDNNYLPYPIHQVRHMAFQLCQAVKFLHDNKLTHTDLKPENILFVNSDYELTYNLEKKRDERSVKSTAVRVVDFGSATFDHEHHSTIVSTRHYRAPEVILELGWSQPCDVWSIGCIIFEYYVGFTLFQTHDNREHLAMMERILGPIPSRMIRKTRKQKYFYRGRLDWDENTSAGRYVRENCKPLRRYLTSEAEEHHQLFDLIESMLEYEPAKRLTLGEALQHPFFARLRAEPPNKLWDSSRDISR

[4] = target: T2, Dual specificity protein kinase CLK2; assay: Inhibition of human recombinant GST-tagged Clk2 expressed in Baculovirus expression system at 0.25 uM using GRSRSRSRSRSRSRS peptide as substrate incubated for 15 mins in presence of ATP by phosphoimager analysis relative to control
Target sequence in this assay (P49760 whole entry, looked up): as the sequence (P49760 whole entry) above

Homo sapiens [5] = species on record: Homo sapiens; assay: Selectivity index, ratio of IC50 for human Clk2 to IC50 for human Clk1 by phosphoimager analysis
[6] = target: Casein kinase I isoform delta (Homo sapiens) (UniProt P48730); assay: Inhibition of human recombinant GST tagged full length CSNK1D expressed in Baculovirus expression system at 1 uM relative to control
Homo sapiens [7] = species on record: Homo sapiens; assay: Inhibition of CK2 (unknown origin) at 1 uM relative to control
[8] = target: Dual specificity protein kinase CLK3 (Homo sapiens) (UniProt P49761); assay: Inhibition of human recombinant GST-tagged full length CLK3 expressed in Baculovirus expression system at 1 uM relative to control
[9] = target: T3, Dual specificity protein kinase CLK4 (Homo sapiens, UniProt Q9HAZ1); assay: Inhibition of human recombinant GST tagged full length CLK4 expressed in Baculovirus expression system at 1 uM relative to control
Target sequence in this assay (Q9HAZ1 whole entry, looked up): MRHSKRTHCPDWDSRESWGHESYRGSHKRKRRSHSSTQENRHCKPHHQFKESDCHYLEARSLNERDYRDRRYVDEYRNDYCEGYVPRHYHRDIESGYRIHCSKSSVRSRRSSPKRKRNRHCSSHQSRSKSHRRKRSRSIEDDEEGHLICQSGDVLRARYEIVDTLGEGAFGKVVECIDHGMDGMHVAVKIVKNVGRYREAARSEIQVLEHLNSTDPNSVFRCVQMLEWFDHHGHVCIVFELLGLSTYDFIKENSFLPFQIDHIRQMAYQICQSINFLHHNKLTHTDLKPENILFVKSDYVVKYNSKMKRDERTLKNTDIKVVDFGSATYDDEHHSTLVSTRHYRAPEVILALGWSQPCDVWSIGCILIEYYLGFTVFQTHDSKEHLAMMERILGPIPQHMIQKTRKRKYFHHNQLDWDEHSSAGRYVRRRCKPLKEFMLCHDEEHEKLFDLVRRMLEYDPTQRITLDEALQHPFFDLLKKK

[10] = target: Dual specificity tyrosine-phosphorylation-regulated kinase 1A (Homo sapiens) (UniProt Q13627); assay: Inhibition of human recombinant GST tagged full length DYRK1A expressed in Baculovirus expression system at 1 uM relative to control
[11] = target: T4, Serine/threonine-protein kinase haspin (Homo sapiens) (UniProt Q8TF76); assay: Inhibition of human recombinant GST tagged full length Haspin catalytic domain expressed in Baculovirus expression system at 1 uM relative to control
T4 sequence (whole entry): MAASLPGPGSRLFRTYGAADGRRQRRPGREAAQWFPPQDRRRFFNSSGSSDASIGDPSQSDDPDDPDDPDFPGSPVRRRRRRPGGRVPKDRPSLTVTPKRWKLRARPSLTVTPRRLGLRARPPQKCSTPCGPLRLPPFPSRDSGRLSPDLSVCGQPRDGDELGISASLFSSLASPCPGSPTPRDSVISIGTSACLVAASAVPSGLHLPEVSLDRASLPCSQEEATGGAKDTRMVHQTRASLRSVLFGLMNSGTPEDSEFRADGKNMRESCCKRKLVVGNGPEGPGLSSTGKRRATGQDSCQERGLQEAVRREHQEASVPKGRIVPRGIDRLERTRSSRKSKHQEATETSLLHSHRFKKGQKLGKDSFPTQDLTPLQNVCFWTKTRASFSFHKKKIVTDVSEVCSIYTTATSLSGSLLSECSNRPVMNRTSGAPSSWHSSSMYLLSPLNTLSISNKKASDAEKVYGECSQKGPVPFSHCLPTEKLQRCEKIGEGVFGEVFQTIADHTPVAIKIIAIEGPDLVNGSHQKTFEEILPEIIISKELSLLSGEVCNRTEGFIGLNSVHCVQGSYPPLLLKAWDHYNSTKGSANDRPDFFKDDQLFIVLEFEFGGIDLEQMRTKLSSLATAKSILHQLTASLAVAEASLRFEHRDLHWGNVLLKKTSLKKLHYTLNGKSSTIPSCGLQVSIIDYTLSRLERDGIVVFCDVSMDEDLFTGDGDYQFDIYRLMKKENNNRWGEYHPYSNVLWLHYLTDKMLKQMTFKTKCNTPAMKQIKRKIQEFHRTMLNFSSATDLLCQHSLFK

[12] = target: Homeodomain-interacting protein kinase 1 (Homo sapiens) (UniProt Q86Z02); assay: Inhibition of human recombinant GST tagged HIPK1 expressed in Baculovirus expression system at 1 uM relative to control
[13] = target: Serine/threonine-protein kinase pim-1 (Homo sapiens) (UniProt P11309); assay: Inhibition of human recombinant His tagged full length Pim1 expressed in Baculovirus expression system at 1 uM relative to control
[14] = target: SRSF protein kinase 1 (Homo sapiens) (UniProt Q96SB4); assay: Inhibition of human recombinant His tagged full length SRPK1 expressed in Baculovirus expression system at 1 uM relative to control
[15] = target: BDNF/NT-3 growth factors receptor (Homo sapiens) (UniProt Q16620); assay: Inhibition of human recombinant His tagged full length TRKB expressed in Baculovirus expression system at 1 uM relative to control
[16] = target: Cyclin-dependent kinase 5/CDK5 activator 1 (Homo sapiens) (UniProt Q00535+Q15078); assay: Inhibition of human recombinant GST tagged/His-tagged full length CDK5/p25 expressed in Baculovirus expression system at 1 uM relative to control
[17] = target: T5, Dual specificity tyrosine-phosphorylation-regulated kinase 2 (Homo sapiens) (UniProt Q92630); assay: Inhibition of human recombinant GST tagged full length DYRK2 expressed in Escherichia coli expression system at 1 uM relative to control
T5 sequence (whole entry): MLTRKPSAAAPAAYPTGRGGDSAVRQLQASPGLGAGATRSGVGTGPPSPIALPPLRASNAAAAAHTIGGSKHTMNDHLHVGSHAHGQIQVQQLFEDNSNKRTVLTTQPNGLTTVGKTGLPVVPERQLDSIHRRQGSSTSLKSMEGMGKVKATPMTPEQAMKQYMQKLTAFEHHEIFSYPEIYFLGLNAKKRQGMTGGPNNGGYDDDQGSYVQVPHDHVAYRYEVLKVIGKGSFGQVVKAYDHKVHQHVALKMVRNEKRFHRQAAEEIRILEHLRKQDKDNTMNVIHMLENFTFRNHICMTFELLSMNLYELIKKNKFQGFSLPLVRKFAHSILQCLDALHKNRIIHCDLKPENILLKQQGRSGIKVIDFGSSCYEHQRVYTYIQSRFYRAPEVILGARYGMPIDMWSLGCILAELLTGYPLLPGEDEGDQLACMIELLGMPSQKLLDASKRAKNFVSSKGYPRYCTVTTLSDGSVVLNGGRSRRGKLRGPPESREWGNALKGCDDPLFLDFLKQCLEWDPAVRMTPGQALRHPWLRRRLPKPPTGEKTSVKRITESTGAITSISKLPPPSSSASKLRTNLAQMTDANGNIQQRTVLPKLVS

[18] = target: T3, Dual specificity protein kinase CLK4; assay: Inhibition of human recombinant GST tagged full length CLK4 expressed in Baculovirus expression system at 1 uM
Target sequence in this assay (Q9HAZ1 whole entry): as the sequence (Q9HAZ1 whole entry, looked up) above

Chain of Casein kinase I isoform delta (Homo sapiens) (P48730 whole entry, looked up, canonical isoform): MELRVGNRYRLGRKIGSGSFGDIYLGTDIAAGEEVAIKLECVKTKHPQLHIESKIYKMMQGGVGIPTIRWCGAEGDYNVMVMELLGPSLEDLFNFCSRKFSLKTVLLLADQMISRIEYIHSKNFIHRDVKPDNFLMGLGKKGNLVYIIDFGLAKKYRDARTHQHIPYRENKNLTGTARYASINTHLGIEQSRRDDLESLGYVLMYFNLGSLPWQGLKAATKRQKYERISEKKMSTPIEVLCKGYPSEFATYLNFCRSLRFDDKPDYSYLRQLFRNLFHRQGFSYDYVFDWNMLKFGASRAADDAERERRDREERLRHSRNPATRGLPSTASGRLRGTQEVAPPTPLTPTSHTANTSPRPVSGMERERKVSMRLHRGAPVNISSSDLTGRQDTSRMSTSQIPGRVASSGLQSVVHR
Chain of BDNF/NT-3 growth factors receptor (Homo sapiens) (Q16620 32-822 limits assumed): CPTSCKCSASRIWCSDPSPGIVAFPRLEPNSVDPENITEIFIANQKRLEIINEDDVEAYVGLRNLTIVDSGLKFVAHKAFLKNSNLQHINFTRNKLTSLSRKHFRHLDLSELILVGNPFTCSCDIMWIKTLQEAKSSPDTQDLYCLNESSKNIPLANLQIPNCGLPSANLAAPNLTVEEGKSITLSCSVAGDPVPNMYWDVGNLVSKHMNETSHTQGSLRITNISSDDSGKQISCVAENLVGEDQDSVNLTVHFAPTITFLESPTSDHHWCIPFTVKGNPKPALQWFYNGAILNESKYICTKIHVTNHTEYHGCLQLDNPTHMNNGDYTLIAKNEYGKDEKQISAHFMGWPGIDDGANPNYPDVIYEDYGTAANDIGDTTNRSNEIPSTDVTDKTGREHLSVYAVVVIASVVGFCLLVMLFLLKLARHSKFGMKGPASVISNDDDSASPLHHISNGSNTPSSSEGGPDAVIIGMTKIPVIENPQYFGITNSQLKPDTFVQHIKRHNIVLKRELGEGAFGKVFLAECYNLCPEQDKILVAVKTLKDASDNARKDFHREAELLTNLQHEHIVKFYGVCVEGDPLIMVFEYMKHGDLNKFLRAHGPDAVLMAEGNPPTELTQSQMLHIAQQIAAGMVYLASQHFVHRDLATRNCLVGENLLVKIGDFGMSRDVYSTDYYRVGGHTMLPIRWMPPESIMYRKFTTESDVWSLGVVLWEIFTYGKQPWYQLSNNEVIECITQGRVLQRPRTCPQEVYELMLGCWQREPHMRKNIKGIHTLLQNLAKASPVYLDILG
Chain of Dual specificity protein kinase CLK3 (Homo sapiens) (P49761 whole entry, looked up): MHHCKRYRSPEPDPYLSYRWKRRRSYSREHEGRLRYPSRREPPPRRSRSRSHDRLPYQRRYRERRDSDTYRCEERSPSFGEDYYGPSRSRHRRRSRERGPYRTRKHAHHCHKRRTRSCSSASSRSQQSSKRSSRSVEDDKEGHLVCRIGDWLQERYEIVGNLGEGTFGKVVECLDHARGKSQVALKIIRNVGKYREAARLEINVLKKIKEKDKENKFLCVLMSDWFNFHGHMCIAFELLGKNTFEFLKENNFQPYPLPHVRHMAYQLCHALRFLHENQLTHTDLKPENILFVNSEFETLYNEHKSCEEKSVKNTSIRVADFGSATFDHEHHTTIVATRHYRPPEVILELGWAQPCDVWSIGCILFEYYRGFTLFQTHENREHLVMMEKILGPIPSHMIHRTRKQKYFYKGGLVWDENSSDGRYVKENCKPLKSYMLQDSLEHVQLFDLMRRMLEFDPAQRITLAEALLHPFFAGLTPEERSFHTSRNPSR
Chain of Serine/threonine-protein kinase pim-1 (Homo sapiens) (P11309 whole entry, looked up): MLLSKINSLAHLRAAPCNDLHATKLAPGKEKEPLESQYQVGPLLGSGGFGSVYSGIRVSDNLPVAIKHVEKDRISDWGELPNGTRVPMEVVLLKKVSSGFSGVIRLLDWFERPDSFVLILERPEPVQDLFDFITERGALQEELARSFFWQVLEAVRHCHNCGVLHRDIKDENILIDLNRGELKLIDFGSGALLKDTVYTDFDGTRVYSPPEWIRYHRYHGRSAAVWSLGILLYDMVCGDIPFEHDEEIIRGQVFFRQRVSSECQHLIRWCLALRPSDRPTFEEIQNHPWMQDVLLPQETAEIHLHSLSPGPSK
Chain of Homeodomain-interacting protein kinase 1 (Homo sapiens) (Q86Z02 whole entry, looked up): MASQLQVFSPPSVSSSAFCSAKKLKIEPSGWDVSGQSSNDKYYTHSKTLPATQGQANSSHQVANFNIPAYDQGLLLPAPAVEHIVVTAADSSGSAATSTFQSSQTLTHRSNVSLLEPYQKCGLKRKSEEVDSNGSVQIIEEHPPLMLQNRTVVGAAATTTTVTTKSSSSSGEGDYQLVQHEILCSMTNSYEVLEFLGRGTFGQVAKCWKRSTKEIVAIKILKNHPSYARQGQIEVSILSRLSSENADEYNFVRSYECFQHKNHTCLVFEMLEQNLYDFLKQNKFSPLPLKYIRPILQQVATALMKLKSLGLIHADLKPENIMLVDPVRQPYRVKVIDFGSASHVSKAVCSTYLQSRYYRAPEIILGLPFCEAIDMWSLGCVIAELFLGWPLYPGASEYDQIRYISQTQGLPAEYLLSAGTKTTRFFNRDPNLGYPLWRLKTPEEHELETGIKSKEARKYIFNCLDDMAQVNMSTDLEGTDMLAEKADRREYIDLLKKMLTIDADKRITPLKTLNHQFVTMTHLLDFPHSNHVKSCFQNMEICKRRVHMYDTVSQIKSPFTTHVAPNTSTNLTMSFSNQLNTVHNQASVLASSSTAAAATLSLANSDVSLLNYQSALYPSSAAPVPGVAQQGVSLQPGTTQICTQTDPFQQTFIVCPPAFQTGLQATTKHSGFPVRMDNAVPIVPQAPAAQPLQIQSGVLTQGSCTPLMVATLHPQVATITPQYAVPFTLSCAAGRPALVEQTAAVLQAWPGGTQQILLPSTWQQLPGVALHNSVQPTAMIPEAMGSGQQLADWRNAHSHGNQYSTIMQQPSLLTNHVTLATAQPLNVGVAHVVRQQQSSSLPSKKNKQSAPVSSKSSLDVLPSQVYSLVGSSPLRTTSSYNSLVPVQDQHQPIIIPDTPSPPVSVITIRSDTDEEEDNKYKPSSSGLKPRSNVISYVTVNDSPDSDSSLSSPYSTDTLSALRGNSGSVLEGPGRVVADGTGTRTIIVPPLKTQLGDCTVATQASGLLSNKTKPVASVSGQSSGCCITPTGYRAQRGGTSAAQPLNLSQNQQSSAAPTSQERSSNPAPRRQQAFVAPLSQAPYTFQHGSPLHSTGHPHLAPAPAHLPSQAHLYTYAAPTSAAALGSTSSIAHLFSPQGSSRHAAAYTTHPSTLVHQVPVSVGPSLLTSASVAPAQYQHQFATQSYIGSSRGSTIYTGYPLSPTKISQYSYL

COc1ccc2sc(C(=O)NC(=O)c3ccc(F)cc3)cc2c1
inhibition [1]: 35.7%

COc1ccc(C(=O)NC(=O)c2cc3cc(OC)ccc3s2)c(OC)c1
inhibition [1]: 42.2% | GI50 (T-24): > 15000 nM

COc1ccc2sc(C(=O)NC(=O)c3ccccc3F)cc2c1
inhibition [1]: 16.5%

COc1ccc2sc(C(=O)NC(=O)c3ccccc3OC)cc2c1
inhibition [1]: 86.6% | IC50 [2]: 34.6 nM

COc1ccc2sc(C(=O)NC(=O)c3ccc(F)cc3OC)cc2c1
inhibition [1]: 74.5% | IC50 [2]: 4 nM | IC50 [3]: > 250 nM | inhibition [4]: 47.1% | Ratio IC50 (Homo sapiens [5]): > 62.5 | GI50 (T-24): > 15000 nM | inhibition [6]: 11% | inhibition (Homo sapiens [7]): 5% | inhibition [8]: 59% | inhibition [9]: 96% | inhibition [10]: 48% | inhibition [11]: 29% | inhibition [12]: 7% | inhibition [13]: 52% | inhibition [14]: 4% | inhibition [15]: 10%

COc1ccc2sc(C(=O)NC(=O)c3cc(Cl)cnc3OC)cc2c1
inhibition [1]: 44.9%

COc1ccc2sc(C(=O)NC(=O)c3cccc(F)c3)cc2c1
inhibition [1]: 38.5%

CCCOc1ccccc1C(=O)NC(=O)c1cc2cc(OC)ccc2s1
inhibition [1]: 62.3% | IC50 [2]: 89.8 nM

COc1ccc2sc(C(=O)NC(=O)c3cc(Cl)ccc3OC)cc2c1
inhibition [1]: 87.1% | IC50 [2]: 9.7 nM | IC50 [3]: 486 nM | inhibition [4]: 19.9% | Ratio IC50 (Homo sapiens [5]): 50 | GI50 (T-24): 1100 nM | inhibition [16]: 3% | inhibition [6]: 7% | inhibition (Homo sapiens [7]): 4% | inhibition [8]: 57% | inhibition [9]: 45% | inhibition [10]: 45% | inhibition [17]: 14% | inhibition [11]: 24% | inhibition [12]: 1% | inhibition [13]: 31% | inhibition [14]: 8% | inhibition [15]: 3% | IC50 [18]: 6.6 nM

COc1ccc2sc(C(=O)NC(=O)c3cccc(OC)n3)cc2c1
inhibition [1]: 42.3%

COc1ccc2sc(C(=O)NC(=O)c3cc(C)cc(F)c3)cc2c1
inhibition [1]: 51.8%

COc1ccc2sc(C(=O)NC(=O)c3ccno3)cc2c1
inhibition [1]: 12.1%

COc1ccc2sc(C(=O)NC(=O)c3ccc(Br)cc3OC)cc2c1
inhibition [1]: 61% | IC50 [2]: 75 nM | IC50 [3]: > 250 nM | inhibition [4]: 3.4% | Ratio IC50 (Homo sapiens [5]): > 3.3

COc1ccc2sc(C(=O)NC(=O)c3ccccc3OC(F)(F)F)cc2c1
inhibition [1]: 64.4% | IC50 [2]: 49 nM | GI50 (T-24): 1100 nM

COc1ccc2sc(C(=O)NC(=O)c3cccc(Cl)n3)cc2c1
inhibition [1]: 33%

COc1ccc2sc(C(=O)NC(=O)c3ccc(OC)c(OC)c3)cc2c1
inhibition [1]: 12.4%

COc1ccc2sc(C(=O)NC(=O)c3ccccc3)cc2c1
inhibition [1]: 56.1%

COc1ccc2sc(C(=O)NC(=O)c3ccc(C)cc3OC)cc2c1
inhibition [1]: 50.9%

COc1ccc2sc(C(=O)NC(=O)c3ccccc3Cl)cc2c1
inhibition [1]: 61.4% | IC50 [2]: 92 nM

COc1cc(F)c(C(=O)NC(=O)c2cc3cc(OC)ccc3s2)c(F)c1
inhibition [1]: 10.6%

COc1ccc2sc(C(=O)NC(=O)c3cc(F)cc(F)c3)cc2c1
inhibition [1]: 54.6%
